Where a chain is given by its changes, count along the chain named.
What was measured:
Format in all cases: cell-based
Venus-Pkd1-AS2 = molecular target: T1, Venus-Pkd1-AS2 (Mus musculus, UniProt Q62101, M665A); assay: Puncta formation of Venus-Pkd1-AS2 in neurons; details: 1 µM, one hour of inhibitor treatment
T1 sequence (Q62101 1-918 M665A): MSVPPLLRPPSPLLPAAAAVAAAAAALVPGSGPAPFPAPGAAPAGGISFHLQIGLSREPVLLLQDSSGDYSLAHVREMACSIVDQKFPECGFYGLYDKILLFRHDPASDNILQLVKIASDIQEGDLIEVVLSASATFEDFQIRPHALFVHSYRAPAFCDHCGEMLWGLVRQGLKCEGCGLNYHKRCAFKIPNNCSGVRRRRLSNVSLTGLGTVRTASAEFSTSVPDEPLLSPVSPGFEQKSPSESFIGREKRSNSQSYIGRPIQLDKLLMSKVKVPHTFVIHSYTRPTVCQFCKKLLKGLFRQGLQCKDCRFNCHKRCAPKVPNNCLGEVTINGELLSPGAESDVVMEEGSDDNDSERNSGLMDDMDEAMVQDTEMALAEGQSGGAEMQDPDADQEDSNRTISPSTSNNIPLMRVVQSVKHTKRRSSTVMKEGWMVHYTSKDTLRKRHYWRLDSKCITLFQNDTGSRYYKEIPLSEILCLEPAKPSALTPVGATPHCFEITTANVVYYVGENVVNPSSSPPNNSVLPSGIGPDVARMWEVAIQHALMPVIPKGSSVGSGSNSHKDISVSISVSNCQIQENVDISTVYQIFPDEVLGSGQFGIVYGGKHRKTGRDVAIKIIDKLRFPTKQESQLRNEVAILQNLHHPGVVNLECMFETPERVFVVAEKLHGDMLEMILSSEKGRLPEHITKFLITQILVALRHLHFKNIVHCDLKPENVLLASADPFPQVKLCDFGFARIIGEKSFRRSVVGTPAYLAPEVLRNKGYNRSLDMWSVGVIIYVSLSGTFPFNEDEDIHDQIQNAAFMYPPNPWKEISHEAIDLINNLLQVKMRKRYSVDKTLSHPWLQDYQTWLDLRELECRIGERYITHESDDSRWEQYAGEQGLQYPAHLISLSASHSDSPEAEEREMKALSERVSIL

Pkd1-WT = molecular target: T2, Pkd1-WT (Mus musculus, UniProt Q62101); assay: Pkd1-WT autophosphorylation in transfected HEK 293T cells; details: 1 µM
T2 sequence (Q62101 1-918): T1 sequence (Q62101 1-918 M665A) with A665M

Venus-Pkd1-WT = molecular target: T3, Venus-Pkd1-WT (Mus musculus, UniProt Q62101); assay: Puncta formation of Venus-Pkd1-WT in neurons; details: 1 µM, one hour of inhibitor treatment
T3 sequence (Q62101 1-918): T1 sequence (Q62101 1-918 M665A) with A665M

Pkd1-AS2 (M665A) = molecular target: T4, Pkd1-AS2 (M665A) (Mus musculus, UniProt Q62101, M665A); assay: Pkd1-AS2 autophosphorylation in transfected HEK 293T cells; details: 1 µM
T4 sequence (Q62101 1-918 M665A): T1 sequence (Q62101 1-918 M665A)

CC(C)(C)n1nc(-c2cccc3ccccc23)c2c(N)ncnc21 [1NA-PP1]
puncta formation, Venus-Pkd1-AS2 neurons (Venus-Pkd1-AS2): forming discrete puncta | effect on autophosphorylation by Pkd1-WT (Pkd1-WT): but not the wild type kinase | puncta formation, Venus-Pkd1-WT neurons (Venus-Pkd1-WT): unaffected | effect on autophosphorylation by Pkd1-AS2 (Pkd1-AS2 (M665A)): completely abrogates autophosphorylation
